{"source": "patent US20060084704A1", "about": "“Methods and compositions for enhancing degradation of nuclear receptor transcription factors and uses thereof” (priority 2004, published 2006)", "target": "T1, AR (Homo sapiens, UniProt P10275, T878A)", "T1 construct": "LNCaP cells express an endogenous mutant AR that is found in prostate cancer patients; host or cells: LNCaP", "T1 sequence (P10275 1-920 T878A)": "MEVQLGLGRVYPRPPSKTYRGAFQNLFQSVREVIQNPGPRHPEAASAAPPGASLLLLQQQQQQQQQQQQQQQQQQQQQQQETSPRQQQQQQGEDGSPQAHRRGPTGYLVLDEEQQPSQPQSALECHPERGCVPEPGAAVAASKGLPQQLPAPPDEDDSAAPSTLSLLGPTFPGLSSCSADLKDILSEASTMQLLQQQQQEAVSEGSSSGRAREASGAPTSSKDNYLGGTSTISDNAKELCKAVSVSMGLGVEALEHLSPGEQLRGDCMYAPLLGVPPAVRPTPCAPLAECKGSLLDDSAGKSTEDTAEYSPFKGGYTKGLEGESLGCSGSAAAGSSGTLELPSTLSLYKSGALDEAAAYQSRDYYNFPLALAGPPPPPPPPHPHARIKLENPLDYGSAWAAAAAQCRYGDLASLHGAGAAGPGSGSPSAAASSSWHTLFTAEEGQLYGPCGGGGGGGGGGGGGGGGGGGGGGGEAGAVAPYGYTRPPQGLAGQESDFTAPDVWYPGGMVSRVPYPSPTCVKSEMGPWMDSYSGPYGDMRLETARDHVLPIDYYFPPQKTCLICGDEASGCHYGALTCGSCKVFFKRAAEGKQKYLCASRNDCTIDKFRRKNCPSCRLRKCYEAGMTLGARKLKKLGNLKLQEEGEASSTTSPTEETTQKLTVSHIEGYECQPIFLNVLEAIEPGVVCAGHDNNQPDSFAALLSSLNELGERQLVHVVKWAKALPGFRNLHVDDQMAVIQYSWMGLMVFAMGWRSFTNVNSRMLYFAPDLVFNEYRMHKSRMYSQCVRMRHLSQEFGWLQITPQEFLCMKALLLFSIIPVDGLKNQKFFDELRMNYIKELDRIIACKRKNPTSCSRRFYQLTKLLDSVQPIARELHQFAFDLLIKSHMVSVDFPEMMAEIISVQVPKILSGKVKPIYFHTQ", "assay": "Western blot analysis of AR expression in JC9-treated LNCaP cells over 5 days", "format": "cell-based", "description": "A Western blot method suitable for detecting degradation of the androgen receptor (AR) has been previously described (Su et al., 1999). Briefly, cells (for example, LNCap cells) are harvested either in 2× sodium dodecyl sulfate (SDS) loading buffer or in radioimmunoprecipitation assay (RIPA) lysis buffer (see “Antibodies: A Laboratory Manual”, E. Harlow and D. Lane, Cold Spring Harbor Laboratory, 1988) containing 10 micrograms/milliliter of benzamidine, 10 micrograms/milliliter of trypsin inhibitor, and 1 millimolar of phenylmethylsulfonyl fluoride (PMSF). Total protein (40 micrograms/sample, or as desired) from cell lysate is separated on a SDS-PAGE gel. […] The membrane is rinsed with PBST, and a suitable visualization procedure is used to detect the secondary antibody (for example, horseradish peroxidase can be detected with a colorimetric substrate or by a chemiluminescent substrate such as that provided by the enhanced chemiluminescence (ECL Plus) kit from Amersham). […] Quantification of the protein signals can be carried out by densitometry, using appropriate software (ImageJ software from the National Institutes of Health).\nAR is the key factor in regulating prostate cancer cells' response to androgens. […] A color detection method was subsequently employed to examine AR and actin protein signals in the membranes, and the resultant protein signals were quantitated by densitometry. […]"}
{"smiles": "COc1ccc(C=CC(=O)C=C(O)C=Cc2ccc(OC)c(OC)c2)cc1OC", "note": "[JC9, 5-hydroxy-1,7-bis(3,4-dimethoxyphenyl)-1,4,6-heptatrien-3-one]", "values": [{"measurement": "time at which AR reduction was first observed", "setting": "5 μM JC9, continuous incubation", "result": 2, "unit": "days"}, {"measurement": "AR level remaining (normalized AR signal, percentage of baseline Day 0)", "setting": "5 μM JC9, end of 5-day incubation", "result": "~10", "unit": "%"}]}
